We go through seven compounds from ChEMBL document CHEMBL1201862, “PubChem BioAssay data set” (2004).

Some test systems named below: BT-549; MDA-N; UACC-62; SF-268; 786-0; SK-MEL-5; TK-10; SK-OV-3; MCF7; DU-145; MDA-MB-435; PC-3; U-251; SW-620; OVCAR-3; SF-295; KM12; SK-MEL-28; SN12C; A498.
What all share (test): inhibition of tumour cell growth, NCI panel, 48 h

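Briefly, cells in 96-well plates were exposed to five compound concentrations for 48 h, and endpoints were estimated by linear interpolation. The concentration for 50% growth inhibition is given as GI50.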 Active and inactive are the calls of the source. Rule as the data show it: active = GI50 up to about 1.1 µM and inactive = higher. Where a SMILES comes first, the peptide text is derived from it. Bridges are numbered along the chain shown (N, C = ends). [ ]: non-standard residue; d: D form. The star is where a group is joined. ξ: configuration not given here. ξNMePhe(4-NMe2) = CNC(Cc1ccc(N(C)C)cc1)C(=O)O; Picolinoyl(3-OH) = O=C(c1ncccc1O)*; ξPip(4-oxo) = O=C1CCNC(C(=O)O)C1; Phg = N[CH](C(=O)O)c1ccccc1; Abu = CC[CH](N)C(=O)O

Take `CC1=NN(c2ccccc2Cl)C2(C1)SCC(=O)N2c1nc2ccccc2s1` (stereo not given): the GI50 with BT-549, with MDA-N, in the assay with UACC-62, in the assay on SF-268, in the assay with 786-0 and in the assay with SK-MEL-5 was > 100 µM (inactive) each time. The GI50 in the assay on TK-10, in the assay on SK-OV-3, with MCF7, in the assay on DU-145, in the assay on MDA-MB-435 and in the assay with PC-3 was > 100 µM (inactive) in each case. Also, the GI50 in the assay on U-251, with SW-620, in the assay on OVCAR-3, with SF-295, with KM12 and in the assay on SK-MEL-28 was > 100 µM (inactive) throughout. The GI50 in the assay on SN12C and in the assay on A498 was > 100 µM (inactive) in each case.

Consider `c1ccc2c(c1)c1c3c(c4c(n32)=NCCN4)CCC1`, for which the GI50 was 32.1 µM (inactive) in the assay on BT-549; 20.7 µM (inactive) with MDA-N; 30.1 µM (inactive) with UACC-62; 31.6 µM (inactive) in the assay on SF-268; 28.1 µM (inactive) in the assay on 786-0; 32.4 µM (inactive) with SK-MEL-5. Also, the GI50 in the assay on TK-10 is 59.7 µM (inactive); with SK-OV-3 it was 37.1 µM (inactive); in the assay on MCF7 it was 24.8 µM (inactive); in the assay with DU-145, 55.3 µM (inactive); with MDA-MB-435, 29.7 µM (inactive); in the assay on PC-3, 26.6 µM (inactive). Besides, the GI50 in the assay with U-251 is 33.8 µM (inactive); in the assay with SW-620 it was 28.5 µM (inactive); in the assay on OVCAR-3 it was 34.8 µM (inactive); in the assay with SF-295, 26.9 µM (inactive); with KM12 it was 27 µM (inactive); in the assay on SK-MEL-28 it was 55.3 µM (inactive). Besides, the GI50 in the assay on SN12C was 18.5 µM (inactive); with A498, 28 µM (inactive).

`COC1=C(C)C(=O)c2c(c(COC(N)=O)c3n2CC2C3N2C)C1=O` (stereo not given): the GI50 is 0.0222 µM (active) with BT-549; 0.019 µM (active) in the assay on MDA-N; < 0.0114 µM (active) in the assay with UACC-62; 0.0256 µM (active) with SF-268; < 0.01 µM (active) in the assay with 786-0; 0.0209 µM (active) in the assay on SK-MEL-5. In addition, the GI50 is 0.0117 µM (active) with TK-10; < 0.0156 µM (active) with SK-OV-3; < 0.01 µM (active) with MCF7; < 0.01 µM (active) in the assay with DU-145; 0.0189 µM (active) with MDA-MB-435; 0.0555 µM (active) in the assay with PC-3. Also, the GI50 in the assay on U-251 is < 0.01 µM (active); in the assay on SW-620, < 0.0113 µM (active); with OVCAR-3, 0.0256 µM (active); with SF-295, < 0.01 µM (active); with KM12 it was < 0.0166 µM (active); with SK-MEL-28 it was 0.0502 µM (active). Moreover, the GI50 was 0.0132 µM (active) in the assay on SN12C and 0.0519 µM (active) in the assay on A498.

Turning to `c1ccc2c(c1)NC1(N3CCCCC3)CCCCC21` (stereo not given), the GI50 was 53 µM (inactive) in the assay with BT-549; 28.1 µM (inactive) in the assay with MDA-N; 48.9 µM (inactive) in the assay with UACC-62; 52.5 µM (inactive) in the assay on SF-268; 61 µM (inactive) with 786-0; 56.1 µM (inactive) in the assay with SK-MEL-5. Besides, the GI50 in the assay on TK-10 is > 100 µM (inactive); with SK-OV-3, > 100 µM (inactive); in the assay on MCF7, 36.1 µM (inactive); with DU-145 it was 57.9 µM (inactive); in the assay with MDA-MB-435 it was 35.2 µM (inactive); with PC-3, 39.4 µM (inactive). Also, the GI50 in the assay on U-251 is 41.2 µM (inactive); in the assay with SW-620 it was 41.2 µM (inactive); in the assay with OVCAR-3 it was 41.7 µM (inactive); in the assay on SF-295 it was 45.4 µM (inactive); with KM12 it was 32.3 µM (inactive); in the assay on SK-MEL-28 it was 49.3 µM (inactive). The values for the GI50 in the assay with SN12C and with A498 were 35.4 µM (inactive) and 32.8 µM (inactive), respectively.

With `CC1=C/C(O)CC(=O)Cc2nc(co2)C(=O)N2CCC=C2C(=O)OC(C(C)C)C(C)/C=C/C(=O)NC\C=C\1.CCC1NC(=O)C(NC(=O)c2ncccc2O)C(C)OC(=O)C(c2ccccc2)NC(=O)C2CC(=O)CCN2C(=O)C(Cc2ccc(N(C)C)cc2)N(C)C(=O)C2CCCN2C1=O` (stereo not given) ({Picolinoyl(3-OH)}-T[Abu]P[ξNMePhe(4-NMe2)][ξPip(4-oxo)][Phg]; ester 1-C; configuration not given here), the GI50 was 16.9 µM (inactive) in the assay on BT-549; 8.07 µM (inactive) in the assay on MDA-N; 13 µM (inactive) in the assay on UACC-62; 24.4 µM (inactive) with SF-268; 15.5 µM (inactive) in the assay on 786-0; 4.91 µM (inactive) with SK-MEL-5. Besides, the GI50 in the assay on TK-10 was 27.2 µM (inactive); with SK-OV-3, 25.5 µM (inactive); in the assay on MCF7, 7.29 µM (inactive); in the assay on DU-145, 7.33 µM (inactive); in the assay on MDA-MB-435, 12 µM (inactive); with PC-3, 8.07 µM (inactive). Moreover, the GI50 in the assay on U-251 was 11.7 µM (inactive); with SW-620 it was 7.5 µM (inactive); with OVCAR-3, 8.04 µM (inactive); in the assay on SF-295 it was 3.66 µM (inactive); with KM12, 10.4 µM (inactive); in the assay on SK-MEL-28, 13.7 µM (inactive). Moreover, the GI50 in the assay with SN12C is 9.35 µM (inactive); in the assay on A498, 10 µM (inactive).

In the case of `CC(=O)OCCCOCn1c(Cc2ccccc2)c(C)c(=O)[nH]c1=O`, the GI50 in the assay with BT-549, in the assay on MDA-N, in the assay on UACC-62, with SF-268, in the assay on 786-0 and with SK-MEL-5 was > 100 µM (inactive) in each case. Further, the GI50 in the assay on TK-10, in the assay with SK-OV-3, in the assay on MCF7, with DU-145, with MDA-MB-435 and in the assay with PC-3 was > 100 µM (inactive) in each case. Besides, the GI50 in the assay with U-251, in the assay with SW-620, in the assay with OVCAR-3, in the assay on SF-295, in the assay on KM12 and with SK-MEL-28 was > 100 µM (inactive) in each case. Also, the GI50 with SN12C and in the assay on A498 was > 100 µM (inactive) in each case.

Consider `COc1ccc(NC2C(=O)C3(C)CCC2C3(C)C)cc1` (stereo not given), for which the GI50 in the assay on BT-549 was 69 µM (inactive); in the assay on MDA-N, > 100 µM (inactive); in the assay with UACC-62, > 100 µM (inactive); in the assay with SF-268 it was > 100 µM (inactive); in the assay with 786-0 it was > 100 µM (inactive); with SK-MEL-5, 34.5 µM (inactive). The GI50 with TK-10 was > 100 µM (inactive); in the assay with SK-OV-3, > 100 µM (inactive); in the assay with MCF7 it was > 100 µM (inactive); with DU-145, > 100 µM (inactive); in the assay with MDA-MB-435, > 100 µM (inactive); in the assay on PC-3, 97.7 µM (inactive). Moreover, the GI50 with U-251, with SW-620, in the assay with OVCAR-3, with SF-295, in the assay with KM12 and with SK-MEL-28 was > 100 µM (inactive) each time. In addition, the GI50 with SN12C and with A498 was > 100 µM (inactive) throughout.
